Laboratory results from patent publication US9993570B2, “Radiolabeled tracers for poly (ADP-ribose) polymerase-1 (PARP-1), methods and uses therefor” (Washington University, priority 2014, dated 2018).
“Also recorded” adds a separate entry of the source.

Legend:
[1] = Organ biodistribution of [18F]WC-4-138 in athymic nude mice; assay type: in vivo
Protocol: This example illustrates biodistribution of Compound 12 ([^18F]WC-4-138) in mice. Eight week old, female, athymic nude mice (Harlan) were injected via tail vein with [^18F]WC4-138. Mice were sacrificed by cervical dislocation 5 or 30 minutes after IV tracer injection of 30 μCi, 1 or 2 hours after injection of 45 μCi, or 4 hours after injection of 60 μCi of [^18F]WC-4-138. The acetonitrile-soluble fractions of plasma or liver and the control parent compound were separated via reverse-phase high performance liquid chromatography (HPLC) and the radioactivity of each fraction was quantified. The percent parent compound of each sample was calculated as the portion of radioactivity associated with the HPLC fractions that contained the parent compound. Data are presented as mean±SD, n=3.
Four mice were sacrificed at each timepoint, with the exception of the 2 hour timepoint (n=3). Blood, heart, lung, muscle, liver, spleen, fat, adrenal glands, kidney, uterus, ovaries, bone, bone marrow, pancreas, stomach, small intestine, and large intestine were collected from each animal. All organs were blotted to remove excess blood, weighed, and counted in a Beckmann 6000 gamma counter. The percent injected dose per gram (% ID/g) of tissue was determined for each organ.

MDA-MB-436 tumors = assay: microPET imaging with [18F]12, MDA-MB-436 xenograft tumors; assay type: in vivo, mice; details: baseline, 0-60 min post-tracer injection
Protocol: This example illustrates the visualization of tumor tissue in microPET in mice. MDA-MB-436 human breast cancer xenograft tumors in immune-deficient mice were visualized by PET using [^18F]12.
MDA-MB-436 and MDA-MB-231 human breast cancer cells were maintained in cell culture under standard conditions with 5% CO2 atmosphere using Eagle's minimum essential medium (with Earle's balanced salt solution and 2 mM L-glutamine) supplemented with 2 mM E-glutamine, 1 mM sodium pyruvate, 0.1 mM non-essential amino acids 2% vitamins for MEM, and 5% fetal bovine serum. Cells in exponential growth were trypsinized and harvested for tumor implantation. After counting, cells were re-suspended in ice-cold 1:1 Matrigel and PBS to give the desired concentration and held on ice.
Mature female athymic nu/nu mice from Charles River Laboratories are allowed to acclimate in an AALAC accredited housing facility for at least 1 week prior to tumor implantation for these serial imaging studies. Female nu/nu mice were implanted in the mammary fat pads (near the auxiliary lymph nodes) with ˜8×10^6 MDA-MB-436 breast cancer cells in ˜100 μL of 1:1 Matrigel:PBS. Imaging studies were conducted 2-3 weeks post implantation.
Tumor-bearing mice were placed in an induction chamber containing ˜2% isoflurane/oxygen and then secured to a custom double bed for placement of tail vein catheters; anesthesia was maintained via nose-cone at ˜1% isoflurane/oxygen for the dynamic imaging procedure. The mice were injected with 150-200 μCi of [^18F]12 and scanned for 0-60 min using Focus 220 and Inveon PET/CT scanners. The standard uptake values (SUVs) were generated from manually drawn regions of interests for tumors and surrounding ‘background’ tissue. Visualization of specific uptake was determined by comparison of baseline scans with images acquired by tracer injection 20 minutes after pre-treatment with the blocking agents olaparib (50 mg/kg, IP) or 12 (1 mg/kg, IP).

Structure (SMILES): O=C1NCCn2c(-c3ccc(OCC[18F])cc3)nc3cccc1c32 [[^18F]12]
- % ID/g, Adrenals ([1]; 5 min after IV injection): 11.80 +/− 0.46 % ID/g
- % ID/g, Blood ([1]; 5 min after IV injection): 1.60 +/− 0.21 % ID/g
- % ID/g, Bone ([1]; 5 min after IV injection): 3.40 +/− 0.74 % ID/g
- % ID/g, Brain ([1]; 5 min after IV injection): 0.55 +/− 0.16 % ID/g
- % ID/g, Fat ([1]; 5 min after IV injection): 1.16 +/− 0.49 % ID/g
- % ID/g, Heart ([1]; 5 min after IV injection): 6.57 +/− 0.45 % ID/g
- % ID/g, Kidney ([1]; 5 min after IV injection): 35.63 +/− 3.33 % ID/g
- % ID/g, Liver ([1]; 5 min after IV injection): 12.50 +/− 1.08 % ID/g
- % ID/g, Lower Large Intestine ([1]; 5 min after IV injection): 4.17 +/− 0.42 % ID/g
- % ID/g, Lung ([1]; 5 min after IV injection): 11.89 +/− 0.89 % ID/g
- % ID/g, Marrow ([1]; 5 min after IV injection): 0.06 +/− 0.02 % ID/g
- % ID/g, Muscle ([1]; 5 min after IV injection): 2.05 +/− 0.48 % ID/g
- % ID/g, Ovaries ([1]; 5 min after IV injection): 4.71 +/− 1.21 % ID/g
- % ID/g, Pancress ([1]; 5 min after IV injection): 9.67 +/− 1.98 % ID/g
- % ID/g, Small Intestine ([1]; 5 min after IV injection): 12.64 +/− 1.45 % ID/g
- % ID/g, Spleen ([1]; 5 min after IV injection): 12.47 +/− 6.69 % ID/g
- % ID/g, Stomach ([1]; 5 min after IV injection): 3.17 +/− 0.66 % ID/g
- % ID/g, Thyroid ([1]; 5 min after IV injection): 4.18 +/− 1.18 % ID/g
- % ID/g, Upper Large Intestine ([1]; 5 min after IV injection): 7.84 +/− 1.02 % ID/g
- % ID/g, Uterus ([1]; 5 min after IV injection): 3.44 +/− 2.01 % ID/g
- % ID/g, Adrenals ([1]; 30 min after IV injection): 5.18 +/− 0.94 % ID/g
- % ID/g, Blood ([1]; 30 min after IV injection): 2.07 +/− 0.16 % ID/g
- % ID/g, Bone ([1]; 30 min after IV injection): 4.49 +/− 0.34 % ID/g
- % ID/g, Brain ([1]; 30 min after IV injection): 1.03 +/− 0.11 % ID/g
- % ID/g, Fat ([1]; 30 min after IV injection): 1.22 +/− 0.25 % ID/g
- % ID/g, Heart ([1]; 30 min after IV injection): 3.44 +/− 0.30 % ID/g
- % ID/g, Kidney ([1]; 30 min after IV injection): 21.14 +/− 2.21 % ID/g
- % ID/g, Liver ([1]; 30 min after IV injection): 8.24 +/− 0.62 % ID/g
- % ID/g, Lower Large Intestine ([1]; 30 min after IV injection): 7.43 +/− 0.59 % ID/g
- % ID/g, Lung ([1]; 30 min after IV injection): 5.33 +/− 0.48 % ID/g
- % ID/g, Marrow ([1]; 30 min after IV injection): 0.11 +/− 0.02 % ID/g
- % ID/g, Muscle ([1]; 30 min after IV injection): 2.39 +/− 0.15 % ID/g
- % ID/g, Ovaries ([1]; 30 min after IV injection): 5.31 +/− 0.82 % ID/g
- % ID/g, Pancress ([1]; 30 min after IV injection): 10.27 +/− 1.28 % ID/g
- % ID/g, Small Intestine ([1]; 30 min after IV injection): 13.00 +/− 0.75 % ID/g
- % ID/g, Spleen ([1]; 30 min after IV injection): 26.85 +/− 3.52 % ID/g
- % ID/g, Stomach ([1]; 30 min after IV injection): 3.77 +/− 0.73 % ID/g
- % ID/g, Thyroid ([1]; 30 min after IV injection): 4.03 +/− 0.28 % ID/g
- % ID/g, Upper Large Intestine ([1]; 30 min after IV injection): 14.07 +/− 1.72 % ID/g
- % ID/g, Uterus ([1]; 30 min after IV injection): 4.53 +/− 1.45 % ID/g
- % ID/g, Adrenals ([1]; 60 min after IV injection): 3.51 +/− 1.08 % ID/g
- % ID/g, Blood ([1]; 60 min after IV injection): 2.30 +/− 0.28 % ID/g
- % ID/g, Bone ([1]; 60 min after IV injection): 5.21 +/− 0.40 % ID/g
- % ID/g, Brain ([1]; 60 min after IV injection): 1.24 +/− 0.13 % ID/g
- % ID/g, Fat ([1]; 60 min after IV injection): 1.16 +/− 0.45 % ID/g
- % ID/g, Heart ([1]; 60 min after IV injection): 2.88 +/− 0.23 % ID/g
- % ID/g, Kidney ([1]; 60 min after IV injection): 14.02 +/− 1.84 % ID/g
- % ID/g, Liver ([1]; 60 min after IV injection): 6.50 +/− 0.52 % ID/g
- % ID/g, Lower Large Intestine ([1]; 60 min after IV injection): 10.53 +/− 1.45 % ID/g
- % ID/g, Lung ([1]; 60 min after IV injection): 3.99 +/− 0.29 % ID/g
- % ID/g, Marrow ([1]; 60 min after IV injection): 0.13 +/− 0.04 % ID/g
- % ID/g, Muscle ([1]; 60 min after IV injection): 2.21 +/− 0.31 % ID/g
- % ID/g, Ovaries ([1]; 60 min after IV injection): 4.75 +/− 0.36 % ID/g
- % ID/g, Pancress ([1]; 60 min after IV injection): 9.18 +/− 1.37 % ID/g
- % ID/g, Small Intestine ([1]; 60 min after IV injection): 8.85 +/− 1.49 % ID/g
- % ID/g, Spleen ([1]; 60 min after IV injection): 25.75 +/− 1.95 % ID/g
- % ID/g, Stomach ([1]; 60 min after IV injection): 3.62 +/− 0.37 % ID/g
- % ID/g, Thyroid ([1]; 60 min after IV injection): 3.32 +/− 0.19 % ID/g
- % ID/g, Upper Large Intestine ([1]; 60 min after IV injection): 15.62 +/− 2.31 % ID/g
- % ID/g, Uterus ([1]; 60 min after IV injection): 5.51 +/− 0.79 % ID/g
- % ID/g, Adrenals ([1]; 120 min after IV injection): 2.69 +/− 0.44 % ID/g
- % ID/g, Blood ([1]; 120 min after IV injection): 2.54 +/− 0.13 % ID/g
- % ID/g, Bone ([1]; 120 min after IV injection): 6.56 +/− 0.80 % ID/g
- % ID/g, Brain ([1]; 120 min after IV injection): 1.58 +/− 0.19 % ID/g
- % ID/g, Fat ([1]; 120 min after IV injection): 1.07 +/− 0.11 % ID/g
- % ID/g, Heart ([1]; 120 min after IV injection): 2.68 +/− 0.09 % ID/g
- % ID/g, Kidney ([1]; 120 min after IV injection): 8.77 +/− 0.72 % ID/g
- % ID/g, Liver ([1]; 120 min after IV injection): 4.58 +/− 0.29 % ID/g
- % ID/g, Lower Large Intestine ([1]; 120 min after IV injection): 13.35 +/− 0.87 % ID/g
- % ID/g, Lung ([1]; 120 min after IV injection): 3.17 +/− 0.28 % ID/g
- % ID/g, Marrow ([1]; 120 min after IV injection): 0.07 +/− 0.01 % ID/g
- % ID/g, Muscle ([1]; 120 min after IV injection): 2.07 +/− 0.11 % ID/g
- % ID/g, Ovaries ([1]; 120 min after IV injection): 4.25 +/− 0.52 % ID/g
- % ID/g, Pancress ([1]; 120 min after IV injection): 5.37 +/− 0.64 % ID/g
- % ID/g, Small Intestine ([1]; 120 min after IV injection): 6.62 +/− 0.75 % ID/g
- % ID/g, Spleen ([1]; 120 min after IV injection): 17.19 +/− 1.08 % ID/g
- % ID/g, Stomach ([1]; 120 min after IV injection): 2.56 +/− 0.27 % ID/g
- % ID/g, Thyroid ([1]; 120 min after IV injection): 3.46 +/− 0.10 % ID/g
- % ID/g, Upper Large Intestine ([1]; 120 min after IV injection): 10.28 +/− 0.65 % ID/g
- % ID/g, Uterus ([1]; 120 min after IV injection): 4.13 +/− 0.20 % ID/g
- % ID/g, Adrenals ([1]; 240 min after IV injection): 1.74 +/− 0.34 % ID/g
- % ID/g, Blood ([1]; 240 min after IV injection): 1.61 +/− 0.05 % ID/g
- % ID/g, Bone ([1]; 240 min after IV injection): 9.29 +/− 1.17 % ID/g
- % ID/g, Brain ([1]; 240 min after IV injection): 1.17 +/− 0.05 % ID/g
- % ID/g, Fat ([1]; 240 min after IV injection): 0.62 +/− 0.44 % ID/g
- % ID/g, Heart ([1]; 240 min after IV injection): 1.67 +/− 0.06 % ID/g
- % ID/g, Kidney ([1]; 240 min after IV injection): 3.67 +/− 0.54 % ID/g
- % ID/g, Liver ([1]; 240 min after IV injection): 2.43 +/− 0.25 % ID/g
- % ID/g, Lower Large Intestine ([1]; 240 min after IV injection): 7.17 +/− 0.50 % ID/g
- % ID/g, Lung ([1]; 240 min after IV injection): 2.03 +/− 0.43 % ID/g
- % ID/g, Marrow ([1]; 240 min after IV injection): 0.04 +/− 0.01 % ID/g
- % ID/g, Muscle ([1]; 240 min after IV injection): 1.35 +/− 0.09 % ID/g
- % ID/g, Ovaries ([1]; 240 min after IV injection): 2.00 +/− 0.41 % ID/g
- % ID/g, Pancress ([1]; 240 min after IV injection): 2.75 +/− 0.44 % ID/g
- % ID/g, Small Intestine ([1]; 240 min after IV injection): 3.04 +/− 0.25 % ID/g
- % ID/g, Spleen ([1]; 240 min after IV injection): 9.80 +/− 1.01 % ID/g
- % ID/g, Stomach ([1]; 240 min after IV injection): 1.20 +/− 0.08 % ID/g
- % ID/g, Thyroid ([1]; 240 min after IV injection): 3.23 +/− 0.49 % ID/g
- % ID/g, Upper Large Intestine ([1]; 240 min after IV injection): 4.33 +/− 0.57 % ID/g
- % ID/g, Uterus ([1]; 240 min after IV injection): 2.05 +/− 0.31 % ID/g
- [18F]12 uptake in MDA-MB-436 tumors (microPET) (MDA-MB-436 tumors): increased uptake that was distinguishable from background; also recorded: progressively accumulated in the tumor; also recorded: accumulation of the radioactivity in these tumors
